The record followed here is US7524880B2, “Crystalline form of a substituted pyrrolidine compound” (Theravance, Inc., priority 2004, dated 2009).

For assay [1], the system named is pilocarpine-evoked salivation. As to the kind of experiment: Inhalation guinea pig salivation assay. The class given is in vivo. On the procedure:
Guinea pigs (Charles River, Wilmington, Mass.) weighing 200-350 g were acclimated to the in-house guinea pig colony for at least 3 days following arrival. Test compound or vehicle were dosed via inhalation (IH) over a 10 minute time period in a pie shaped dosing chamber (R+S Molds, San Carlos, Calif.). Test solutions were dissolved in sterile water and delivered using a nebulizer filled with 5.0 mL of dosing solution. Guinea pigs were restrained in the inhalation chamber for 30 minutes. During this time, guinea pigs were restricted to an area of approximately 110 cm^2. This space was adequate for the animals to turn freely, reposition themselves, and allow for grooming. […] Upon completion of nebulization, guinea pigs were evaluated at 1.5, 6, 12, 24, 48, or 72 hrs after treatment.
Guinea pigs were anesthetized one hour before testing with an intramuscular (IM) injection of a mixture of ketamine 43.75 mg/kg, xylazine 3.5 mg/kg, and acepromazine 1.05 mg/kg at an 0.88 mL/kg volume. […] Saliva was collected for 10 minutes, at which point the gauze pad was weighed and the difference in weight recorded to determine the amount of accumulated saliva (in mg). The mean amount of saliva collected for animals receiving the vehicle and each dose of test compound was calculated. […] Results were calculated using result means (n=3 or greater). […]

In another assay the target is T1, hM2 receptor (Homo sapiens, UniProt P08172).
T1 construct: expressed in transfected cells; host or cells: CHO-K1 cells
T1 sequence (P08172 1-466): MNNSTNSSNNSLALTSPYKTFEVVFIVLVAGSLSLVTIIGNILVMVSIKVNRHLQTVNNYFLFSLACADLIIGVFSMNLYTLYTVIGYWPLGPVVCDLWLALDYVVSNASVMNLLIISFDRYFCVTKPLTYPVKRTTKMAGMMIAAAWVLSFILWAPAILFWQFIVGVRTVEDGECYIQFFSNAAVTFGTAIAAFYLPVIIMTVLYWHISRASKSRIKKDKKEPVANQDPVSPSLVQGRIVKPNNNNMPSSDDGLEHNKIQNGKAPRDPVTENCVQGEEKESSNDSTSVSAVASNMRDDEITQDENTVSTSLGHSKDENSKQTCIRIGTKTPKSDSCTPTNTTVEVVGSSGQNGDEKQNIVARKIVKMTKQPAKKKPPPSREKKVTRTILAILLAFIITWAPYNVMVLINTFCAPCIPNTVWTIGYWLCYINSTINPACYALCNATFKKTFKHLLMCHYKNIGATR
Kind of assay: Blockade of agonist-mediated inhibition of cAMP accumulation. The class given is cell-based. The conditions noted are these: CHO-K1 cells expressing the hM2 receptor; read-out: Ki value for blockade of oxotremorine-inhibition of forskolin-mediated cAMP accumulation. On the procedure: A. Blockade of Agonist-Mediated Inhibition of cAMP Accumulation
In this assay, the functional potency of a test compound was determined by measuring the ability of the test compound to block oxotremorine-inhibition of forskolin-mediated cAMP accumulation in CHO-K1 cells expressing the hM2 receptor.
cAMP assays were performed in a radioimmunoassay format using the Flashplate Adenylyl Cyclase Activation Assay System with ^125I-cAMP (NEN SMP004B, PerkinElmer Life Sciences Inc., Boston, Mass.), according to the manufacturer's instructions.
Cells were rinsed once with dPBS and lifted with Trypsin-EDTA solution (0.05% trypsin/0.53 mM EDTA) as described in the Cell Culture and Membrane Preparation section above. […] The cell pellet was then re-suspended in 10 mL dPBS, and the cells were counted with a Coulter Z1 Dual Particle Counter (Beckman Coulter, Fullerton, Calif.). […]
Reactions were incubated for 10 minutes at 37° C. and stopped by addition of 100 μL ice-cold detection buffer. Plates were sealed, incubated overnight at room temperature and counted the next morning on a PerkinElmer TopCount liquid scintillation counter (PerkinElmer Inc., Wellesley, Mass.). The amount of cAMP produced (pmol/well) was calculated based on the counts observed for the samples and cAMP standards, as described in the manufacturer's user manual. […]

One may read the Ki as a dissociation constant, usually derived from enzyme kinetics or from competition with a known ligand.

SMILES strings stand for the structures. Where only a bound is given, the exact number is not on record here.

On to `CNCCCCCCCCN1CC[C@@H](C(C(N)=O)(c2ccccc2)c2ccccc2)C1` [compound of formula I, 2-[(S)-1-(8-methylaminooctyl)pyrrolidin-3-yl]-2,2-diphenylacetamide], for which the “apparent lung selectivity index (ratio of anti-sialagogue ID50 to bronchoprotective ID50)” value in assay [1] was “greater than 5”. On hM2 receptor, the Ki was below 5 nM.
